In EP0326331B1, “Substituted quinolines and cinnolines” (Dow AgroSciences LLC, priority 1988, dated 1989):

Tests used:
Format in all cases: in vivo
[1] = test system: melon aphids (Aphis gossypii Glover); assay: Mite/insect screen, MA; settings: percent mortality, SAW, SM & MA RATE 200 PPM; for mortality at 200 ppm: Aphis gossypii, read-out: MA RESULTS %
Outline: (§1)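 Read-out: percent mortality after standard exposure periods. Test solutions were water dilutions of compound dissolved in acetone/alcohol (50:50) with emulsifier blends; leaves were sprayed to runoff on both surfaces and air-dried for one hour before exposure.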

[2] = test system: Cercospora beticola (leaf spot); assay: Test 1 greenhouse foliar spray screen, leaf spot on sugar beet; settings: disease control rating, foliar spray on sugar beet, 400 ppm (+++ at 100 ppm)
[3] = test system: Pseudoperonospora cubensis (downy mildew); assay: Test 1 greenhouse foliar spray screen, downy mildew on squash; settings: for DOWN MDEW: disease control rating, foliar spray on squash, 400 ppm (+++ at 100 ppm)
[4] = test system: corn rootworm; assay: Mite/insect screen, CRW; settings: percent mortality, CRW RATE 12.00 PPM; for mortality at 12 ppm: read-out: CRW RESULTS %
Outline: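 Read-out: % mortality after standard exposure. Formulation: acetone/alcohol (50:50) with emulsifiers at 23 g and 13 g per liter, water-diluted to final test levels.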

[5] = test system: southern armyworm (Spodopetra eridania Cramer); assay: Mite/insect screen, SAW; settings: percent mortality, SAW, SM & MA RATE 200 PPM; for mortality at 200 ppm: Spodoptera eridania, read-out: SAW RESULTS %
Outline: as §1

[6] = test system: Pyricularia oryzae (rice blast); assay: whole plant or invertebrate; settings: disease control rating, foliar spray on rice, 400 ppm (+++ at 100 ppm)
[7] = test system: Septoria tritici (leaf blotch); assay: Test 1 greenhouse foliar spray screen, leaf blotch on wheat; settings: disease control rating, foliar spray on wheat, 400 ppm (+++ at 100 ppm)
[8] = test system: Venturia inaequalis (apple scab); assay: Test 1 greenhouse foliar spray screen, apple scab on apple seedling; settings: disease control rating, foliar spray on apple seedling, 400 ppm (+++ at 100 ppm)
[9] = test system: Twospotted spider mites (Tetranychus urticae Koch); assay: Mite/insect screen, SM; settings: percent mortality, SAW, SM & MA RATE 200 PPM; for mortality at 200 ppm: Tetranychus urticae, read-out: SM RESULTS %
Outline: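 Foliar spray to runoff (10 psi), 1 h drying; aqueous dilutions from acetone/alcohol emulsifier stock. Mortality (%) after standard exposure.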

[10] = test system: Botrytis cinerea (gray mold); assay: Test 1 greenhouse foliar spray screen, gray mold on grape berries; settings: disease control rating, spray on grape berries, 400 ppm (+++ at 100 ppm)
[11] = test system: Erysiphe graminis tritici (powdery mildew); assay: Test 1 greenhouse foliar spray screen, powdery mildew on wheat; settings: disease control rating, foliar spray on wheat, 400 ppm (+++ at 100 ppm)
[12] = test system: Puccinia recondita tritici (leaf rust); assay: Test 1 greenhouse foliar spray screen, leaf rust on wheat; settings: disease control rating, foliar spray on wheat, 400 ppm (+++ at 100 ppm)

Row | SMILES | mortality at 200 ppm [1] | LEAF SPOT [2] | DOWN MDEW [3] | mortality at 12 ppm [4] | mortality at 200 ppm [5] | RICE BLAST [6] | LEAF BLOT [7] | APPL SCAB [8] | mortality at 200 ppm [9] | GRAY MOLD [10] | POWD MDEW [11] | LEAF RUST [12] | MA RESULTS % [1] | CRW RESULTS % [4] | SAW RESULTS % [5] | SM RESULTS % [9] | activity against downy mildew ([3]; summary statement in the description)
1 | Fc1cc(F)c2nccc(NCCc3cccs3)c2c1 [Example 149, 6,8-difluoro-N-[2-(2-thienyl)ethyl]-4-quinolinamine] | 0% | +++ (90-100% control at 100 ppm) | ++ (90-100% control at 400 ppm) | 0% | 0% | + (20-89% control at 400 ppm) | + (20-89% control at 400 ppm) | - (0-19% control at 400 ppm) | 0% | - (0-19% control at 400 ppm) | + (20-89% control at 400 ppm) | ++ (90-100% control at 400 ppm) | – | – | – | – | –
2 | Fc1cc(F)c2nccc(NCCc3ccsc3)c2c1 [Example 150, 6,8-difluoro-N-[2-(3-thienyl)ethyl]-4-quinolinamine] | 0% | +++ (90-100% control at 100 ppm) | ++ (90-100% control at 400 ppm) | 0% | 0% | + (20-89% control at 400 ppm) | +++ (90-100% control at 100 ppm) | - (0-19% control at 400 ppm) | 0% | - (0-19% control at 400 ppm) | + (20-89% control at 400 ppm) | ++ (90-100% control at 400 ppm) | 0% | 0% | 0% | 0% | –
3 | c1ccc2c(CCNc3ccnc4ccccc34)cccc2c1 [Example 151, N-[2-(1-naphthyl)ethyl]-4-quinolinamine] | 0% | + (20-89% control at 400 ppm) | +++ (90-100% control at 100 ppm) | 0% | 0% | + (20-89% control at 400 ppm) | + (20-89% control at 400 ppm) | - (0-19% control at 400 ppm) | 0% | - (0-19% control at 400 ppm) | + (20-89% control at 400 ppm) | ++ (90-100% control at 400 ppm) | – | – | – | – | –
4 | c1ccc2cc(CCNc3ccnc4ccccc34)ccc2c1 [Example 152, N-[2-(2-naphthyl)ethyl]-4-quinolinamine] | 0% | +++ (90-100% control at 100 ppm) | +++ (90-100% control at 100 ppm) | 0% | 0% | +++ (90-100% control at 100 ppm) | +++ (90-100% control at 100 ppm) | - (0-19% control at 400 ppm) | 0% | - (0-19% control at 400 ppm) | ++ (90-100% control at 400 ppm) | ++ (90-100% control at 400 ppm) | 0% | 0% | 0% | 0% | –
5 | FC(F)(F)c1ccc2c(NCCc3cccs3)ccnc2c1 [Example 153, N-[2-(2-thienyl)ethyl]-7-(trifluoromethyl)-4-quinolinamine] | 0% | - (0-19% control at 400 ppm) | + (20-89% control at 400 ppm) | 0% | 0% | ++ (90-100% control at 400 ppm) | - (0-19% control at 400 ppm) | - (0-19% control at 400 ppm) | 0% | - (0-19% control at 400 ppm) | + (20-89% control at 400 ppm) | ++ (90-100% control at 400 ppm) | – | – | – | – | –
6 | Fc1cccc2c(NCCc3nc(-c4ccccc4)cs3)ccnc12 [Example 154, 8-fluoro-N-[2-(4-phenyl-2-thiazolyl)ethyl]-4-quinolinamine] | 0% | + (20-89% control at 400 ppm) | +++ (90-100% control at 100 ppm) | 0% | 0% | + (20-89% control at 400 ppm) | + (20-89% control at 400 ppm) | + (20-89% control at 400 ppm) | 0% | - (0-19% control at 400 ppm) | ++ (90-100% control at 400 ppm) | +++ (90-100% control at 100 ppm) | 0% | 0% | 0% | 0% | particularly excellent activity
7 | Clc1cccc2c(NCCc3cccc4ccccc34)ccnc12 [Example 155, 8-chloro-N-[2-(1-naphthyl)ethyl]-4-quinolinamine] | 0% | - (0-19% control at 400 ppm) | +++ (90-100% control at 100 ppm) | 0% | 0% | + (20-89% control at 400 ppm) | - (0-19% control at 400 ppm) | - (0-19% control at 400 ppm) | 0% | - (0-19% control at 400 ppm) | - (0-19% control at 400 ppm) | - (0-19% control at 400 ppm) | – | – | – | – | –
8 | Clc1cccc2c(NCCc3ccc4ccccc4c3)ccnc12 [Example 156, 8-chloro-N-[2-(2-naphthyl)ethyl]-4-quinolinamine] | 0% | - (0-19% control at 400 ppm) | +++ (90-100% control at 100 ppm) | 0% | 0% | + (20-89% control at 400 ppm) | - (0-19% control at 400 ppm) | - (0-19% control at 400 ppm) | 0% | - (0-19% control at 400 ppm) | - (0-19% control at 400 ppm) | + (20-89% control at 400 ppm) | 0% | 0% | 0% | 0% | –
9 | Fc1cccc2c(NCCc3cccc4ccccc34)ccnc12 [Example 158, 8-fluoro-N-[2-(1-naphthyl)ethyl]-4-quinolinamine] | 0% | + (20-89% control at 400 ppm) | +++ (90-100% control at 100 ppm) | 0% | 0% | +++ (90-100% control at 100 ppm) | +++ (90-100% control at 100 ppm) | - (0-19% control at 400 ppm) | 0% | - (0-19% control at 400 ppm) | + (20-89% control at 400 ppm) | +++ (90-100% control at 100 ppm) | – | – | – | – | –
10 | Cc1ccc(CCNc2ccnc3c(F)cccc23)s1 [Example 162, 8-fluoro-N-[2-(5-methyl-2-thienyl)ethyl]-4-quinolinamine] | 0% | - (0-19% control at 400 ppm) | +++ (90-100% control at 100 ppm) | 0% | 0% | + (20-89% control at 400 ppm) | - (0-19% control at 400 ppm) | - (0-19% control at 400 ppm) | 0% | - (0-19% control at 400 ppm) | + (20-89% control at 400 ppm) | ++ (90-100% control at 400 ppm) | – | – | – | – | –
11 | Fc1cccc2c(NCCc3ccc(Cl)s3)ccnc12 [Example 163, N-[2-(5-chloro-2-thienyl)ethyl]-8-fluoro-4-quinolinamine] | 0% | +++ (90-100% control at 100 ppm) | ++ (90-100% control at 400 ppm) | 0% | 0% | + (20-89% control at 400 ppm) | - (0-19% control at 400 ppm) | - (0-19% control at 400 ppm) | 0% | - (0-19% control at 400 ppm) | ++ (90-100% control at 400 ppm) | +++ (90-100% control at 100 ppm) | – | – | – | – | –
